Calls of active or inactive are those of the source. The rule behind the calls is not given here.
Key:
BaF3 [1] = conditions: Mus musculus, CB17-SCID, Tumor/tissue, dose 10-30 mg/kg, route ip, time 13.0 day
BaF3 [2] = assay: Induction of apoptosis in mouse BaF3 cells harbouring CCDC6-RET G810R assessed as late apoptotic cells measured at 100 nM for 48 hrs by Annexin V-FITC staining based Guava easyCyte flow cytometric analysis (reference value: 3.4 %); assay type: functional
BaF3 [3] = assay: Antiproliferative activity against mouse BaF3 cells expressing rearranged during transfection kinase V804L-G810C incubated for 74 to 76 hrs by cell counting kit 8 method
BaF3 [4] = conditions: Mus musculus, CB17-SCID, Tumor/tissue, dose 10-30 mg/kg, route ip, time 13.0 day; remark: listed apart in the source
BaF3 [5] = assay: Induction of apoptosis in mouse BaF3 cells harbouring CCDC6-RET G810C assessed as late apoptotic cells measured at 100 nM for 48 hrs by Annexin V-FITC staining based Guava easyCyte flow cytometric analysis (reference value: 2.65 %); assay type: functional
BaF3 [6] = assay: Induction of apoptosis in mouse BaF3 cells harbouring CCDC6-RET G810C assessed as necrotic cells measured at 33.3 nM for 48 hrs by Annexin V-FITC staining based Guava easyCyte flow cytometric analysis (reference value: 0.35 %); assay type: functional
BaF3 [7] = conditions: Mus musculus, dose 100.0 nM, time 4.0 hrs
BaF3 [8] = assay: Induction of apoptosis in mouse BaF3 cells harbouring CCDC6-RET G810C assessed as necrotic cells measured at 100 nM for 48 hrs by Annexin V-FITC staining based Guava easyCyte flow cytometric analysis (reference value: 0.35 %); assay type: functional
BaF3 [9] = conditions: Mus musculus, dose <= 100.0 nM, time 4.0 hrs
[10] = molecular target: Proto-oncogene tyrosine-protein kinase receptor Ret/Coiled-coil domain-containing protein 6 (Mus musculus) (UniProt P35546+D3YZP9); assay: Inhibition of wild type rearranged during transfection kinase/CCDC6 phosphorylation in mouse BaF3 cells measured at 100 nM for 4 hrs by Western blot analysis; assay type: cell-based
Proto-oncogene tyrosine-protein kinase receptor Ret/Coiled-coil domain-containing protein 6 (Mus musculus), sequence (D3YZP9 whole entry, looked up, the tested form may be a part): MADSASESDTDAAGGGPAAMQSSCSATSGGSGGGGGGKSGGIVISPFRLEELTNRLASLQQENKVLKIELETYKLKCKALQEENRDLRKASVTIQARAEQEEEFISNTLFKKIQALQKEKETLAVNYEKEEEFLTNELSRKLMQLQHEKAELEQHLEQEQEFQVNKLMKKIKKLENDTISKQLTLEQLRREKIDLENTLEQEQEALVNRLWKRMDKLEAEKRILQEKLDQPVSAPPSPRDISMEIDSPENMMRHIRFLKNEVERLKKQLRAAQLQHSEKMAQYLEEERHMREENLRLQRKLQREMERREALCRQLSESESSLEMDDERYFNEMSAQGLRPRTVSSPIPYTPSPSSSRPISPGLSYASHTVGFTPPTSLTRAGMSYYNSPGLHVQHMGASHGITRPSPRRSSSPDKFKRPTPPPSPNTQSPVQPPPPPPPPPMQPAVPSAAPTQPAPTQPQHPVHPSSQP
Proto-oncogene tyrosine-protein kinase receptor Ret/Coiled-coil domain-containing protein 6 (Mus musculus), sequence (P35546 whole entry, looked up, the tested form may be a part): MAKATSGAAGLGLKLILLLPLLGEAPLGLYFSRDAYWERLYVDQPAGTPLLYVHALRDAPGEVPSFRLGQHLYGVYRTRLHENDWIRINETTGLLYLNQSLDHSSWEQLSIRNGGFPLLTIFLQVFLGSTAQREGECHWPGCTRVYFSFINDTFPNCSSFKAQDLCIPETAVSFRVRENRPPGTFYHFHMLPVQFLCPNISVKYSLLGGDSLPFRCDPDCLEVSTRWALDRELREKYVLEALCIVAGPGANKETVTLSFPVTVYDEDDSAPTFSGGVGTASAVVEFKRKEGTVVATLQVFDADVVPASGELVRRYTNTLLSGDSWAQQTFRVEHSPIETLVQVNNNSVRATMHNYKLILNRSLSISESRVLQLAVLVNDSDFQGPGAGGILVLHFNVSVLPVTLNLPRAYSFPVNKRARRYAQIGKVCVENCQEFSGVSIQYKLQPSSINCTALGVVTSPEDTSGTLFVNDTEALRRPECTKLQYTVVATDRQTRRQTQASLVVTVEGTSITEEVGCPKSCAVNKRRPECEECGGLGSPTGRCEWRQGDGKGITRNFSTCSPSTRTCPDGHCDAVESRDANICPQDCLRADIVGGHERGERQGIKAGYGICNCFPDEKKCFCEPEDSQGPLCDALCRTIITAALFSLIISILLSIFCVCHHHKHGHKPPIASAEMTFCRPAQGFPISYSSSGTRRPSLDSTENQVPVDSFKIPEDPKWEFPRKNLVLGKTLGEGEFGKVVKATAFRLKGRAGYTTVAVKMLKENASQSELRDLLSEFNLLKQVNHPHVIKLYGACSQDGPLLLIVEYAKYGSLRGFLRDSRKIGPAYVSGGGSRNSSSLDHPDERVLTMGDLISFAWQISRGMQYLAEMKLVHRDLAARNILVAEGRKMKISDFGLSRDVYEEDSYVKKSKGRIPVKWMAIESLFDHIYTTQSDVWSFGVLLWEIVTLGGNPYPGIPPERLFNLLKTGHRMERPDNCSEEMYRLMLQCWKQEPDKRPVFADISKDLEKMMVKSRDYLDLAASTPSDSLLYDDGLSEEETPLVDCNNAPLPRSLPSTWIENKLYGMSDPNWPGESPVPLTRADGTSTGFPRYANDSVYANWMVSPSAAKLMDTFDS

BaF3 [11] = assay: Induction of apoptosis in mouse BaF3 cells harbouring CCDC6-RET G810C assessed as viable cells measured at 33.3 nM for 48 hrs by Annexin V-FITC staining based Guava easyCyte flow cytometric analysis (reference value: 90.90 %); assay type: functional; conditions: read-out: Activity
BaF3 [12] = assay: Antiproliferative activity against mouse BaF3 cells expressing wildtype rearranged during transfection kinase-CCDC6 incubated for 74 to 76 hrs by cell counting kit 8 method
BaF3 [13] = conditions: Mus musculus, dose 100.0 nM, time 4.0 hrs; remark: listed apart in the source
[14] = Toxicity in CB17-SCID mouse xenografted with BaF3 cells expressing CCDC6-RET G810C assessed as loss of body weight measured at 10 to 30 mg/kg, ip qd administered for 12 days measured every 2 days; assay type: organism-based; conditions: in vivo, 288 h, dose 10-30 mg/kg, time 12 day
BaF3 [15] = assay: Induction of apoptosis in mouse BaF3 cells harbouring CCDC6-RET G810C assessed as late apoptotic cells measured at 300 nM for 48 hrs by Annexin V-FITC staining based Guava easyCyte flow cytometric analysis (reference value: 2.65 %); assay type: functional
BaF3 [16] = assay: Induction of apoptosis in mouse BaF3 cells harbouring CCDC6-RET G810R assessed as early apoptotic cells measured at 100 nM for 48 hrs by Annexin V-FITC staining based Guava easyCyte flow cytometric analysis (reference value: 6.46 %); assay type: functional
BaF3 [17] = assay: Antiproliferative activity against mouse BaF3 cells expressing rearranged during transfection kinase G810R-CCDC6 incubated for 74 to 76 hrs by cell counting kit 8 method
BaF3 [18] = assay: Induction of apoptosis in mouse BaF3 cells harbouring CCDC6-RET G810R assessed as late apoptotic cells measured at 300 nM for 48 hrs by Annexin V-FITC staining based Guava easyCyte flow cytometric analysis (reference value: 3.4 %); assay type: functional
BaF3 [19] = assay: Induction of apoptosis in mouse BaF3 cells harbouring CCDC6-RET G810R assessed as viable cells measured at 100 nM for 48 hrs by Annexin V-FITC staining based Guava easyCyte flow cytometric analysis (reference value: 89.5 %); assay type: functional; conditions: read-out: Activity
BaF3 [20] = assay: Antiproliferative activity against mouse BaF3 cells expressing rearranged during transfection kinase V804M-CCDC6 incubated for 74 to 76 hrs by cell counting kit 8 method
BaF3 [21] = conditions: Mus musculus, dose <= 100.0 nM, time 4.0 hrs; remark: listed apart in the source
BaF3 [22] = assay: Induction of apoptosis in mouse BaF3 cells harbouring CCDC6-RET G810C assessed as necrotic cells measured at 300 nM for 48 hrs by Annexin V-FITC staining based Guava easyCyte flow cytometric analysis (reference value: 0.35 %); assay type: functional
BaF3 [23] = assay: Induction of apoptosis in mouse BaF3 cells harbouring CCDC6-RET G810C assessed as viable cells measured at 100 nM for 48 hrs by Annexin V-FITC staining based Guava easyCyte flow cytometric analysis (reference value: 90.90 %); assay type: functional; conditions: read-out: Activity
BaF3 [24] = assay: Induction of apoptosis in mouse BaF3 cells harbouring CCDC6-RET G810R assessed as necrotic cells measured at 300 nM for 48 hrs by Annexin V-FITC staining based Guava easyCyte flow cytometric analysis (reference value: 0.64 %); assay type: functional
BaF3 [25] = assay: Induction of apoptosis in mouse BaF3 cells harbouring CCDC6-RET G810R assessed as viable cells measured at 300 nM for 48 hrs by Annexin V-FITC staining based Guava easyCyte flow cytometric analysis (reference value: 89.5 %); assay type: functional; conditions: read-out: Activity
BaF3 [26] = assay: Antiproliferative activity against mouse BaF3 cells expressing rearranged during transfection kinase V804M-KIF5B incubated for 74 to 76 hrs by cell counting kit 8 method
[27] = Toxicity in CB17-SCID mouse xenografted with BaF3 cells expressing CCDC6-RET G810C assessed as tolerability measured at 10 to 30 mg/kg, ip qd administered for 12 days; assay type: organism-based; conditions: in vivo, 288 h, dose 10-30 mg/kg, time 12 day
BaF3 [28] = assay: Induction of apoptosis in mouse BaF3 cells harbouring CCDC6-RET G810C assessed as early apoptotic cells measured at 100 nM for 48 hrs by Annexin V-FITC staining based Guava easyCyte flow cytometric analysis (reference value: 6.10 %); assay type: functional
BaF3 [29] = assay: Induction of apoptosis in mouse BaF3 cells harbouring CCDC6-RET G810R assessed as viable cells measured at 33.3 nM for 48 hrs by Annexin V-FITC staining based Guava easyCyte flow cytometric analysis (reference value: 89.5 %); assay type: functional; conditions: read-out: Activity
BaF3 [30] = assay: Antitumor activity against mouse BaF3 cells harbouring CCDC6-RET G810C cells xenografted in CB17-SCID mouse assessed as reduction in tumor growth at 10 mg/kg ip qd administered for 12 days measured every 2 days relative to control; assay type: functional; conditions: BaF3, 288 h, time 12 day, read-out: TGI
BaF3 [31] = conditions: Mus musculus, dose 100.0 nM, time 4.0 hrs; remark: listed apart in the source
BaF3 [32] = assay: Antiproliferative activity against mouse BaF3 cells incubated for 74 to 76 hrs by cell counting kit 8 method; assay type: functional, cell-based

## COc1cc2nccc(Oc3ccc(Nc4nn(C)cc4C(=O)NC45CC6CC(CC(C6)C4)C5)c(F)c3)c2cc1C(N)=O
BaF3 [1]
  inhibition: Active
BaF3 [2]
  Activity: 1.8%
BaF3 [3]
  IC50: 54.2 nM
BaF3 [4]
  inhibition: Active
BaF3 [5]
  Activity: 2.39%
BaF3 [6]
  Activity: 0.28%
BaF3 [7]
  inhibition: Active
BaF3 [8]
  Activity: 0.25%
BaF3 [9]
  inhibition: Dose-Dependent Effect
[10]
  inhibition: Active
BaF3 [11]
  viability at 0.0333 µM: 90.8%
BaF3 [12]
  IC50: 5.6 nM
BaF3 [13]
  inhibition: Active
[14]
  Activity: Non-Toxic
BaF3 [15]
  Activity: 3.08%
BaF3 [16]
  Activity: 9.4%
BaF3 [17]
  IC50: 53.2 nM
BaF3 [18]
  Activity: 3.21%
BaF3 [19]
  viability at 0.1 µM: 88.6%
BaF3 [20]
  IC50: 24.4 nM
BaF3 [21]
  inhibition: Dose-Dependent Effect
BaF3 [22]
  Activity: 0.41%
BaF3 [23]
  viability at 0.1 µM: 80.2%
BaF3 [24]
  Activity: 0.24%
BaF3 [25]
  viability at 0.3 µM: 63.9%
BaF3 [26]
  IC50: 53.1 nM
[27]
  Activity: Non-Toxic
BaF3 [28]
  Activity: 17.19%
BaF3 [29]
  viability at 0.0333 µM: 91.1%
BaF3 [30]
  inhibition in vivo at 10 mg/kg: 17.1%
BaF3 [31]
  inhibition: Active
BaF3 [32]
  IC50: > 10000 nM
